Patent publication US20090131356A1, “miR-15, miR-26, miR-31, miR-145, miR-147, miR-188, miR-215, miR-216, miR-331, mmu-miR-292-3P REGULATED GENES AND PATHWAYS AS TARGETS FOR THERAPEUTIC INTERVENTION” (ASURAGEN, INC., priority 2006, published 2009)

Assays:
Type in all cases: cell-based, human
A549 cells = assay: Alamar Blue proliferation assay, A549
Excerpt: (§1) The inventors assessed the therapeutic effect of hsa-miR-147 for lung cancer by using 12 individual lung cancer cell lines. To measure cellular proliferation of lung cancer cells, the following parental non-small cell lung cancer (NSCLC) cells were used: cells derived from lung adenocarcinoma (A549, H1299, H522, H838, Calu-3, HCC827, HCC2935), cells derived from lung squamous cell carcinoma (H520, H226), cells derived from lung adenosquamous cell carcinoma (H596), cells derived from lung bronchioalveolar carcinoma (H1650), and cells derived from lung large cell carcinoma (H460). In addition to these parental cell lines, highly metastatic NSCLC cells were used that stably express the firefly luciferase gene: A549-luc, H460-luc, HCC827-luc, H1650-luc, H441-luc. Unlike the parental cell lines, these metastatic cells readily migrate to distant sites of the test animal and form metastases upon subcutaneous, orthotopic, or intravenous injection. Synthetic hsa-miR-147 or negative control miRNA was delivered via lipid-based transfection into A549, H1299, H522, H838, Calu-3, HCC827, HCC2935, H520, H596, H1650, H460, A549-luc, H460-luc, HCC827-luc, H1650-luc, H441-luc cells and via electroporation into H226 cells. Lipid-based reverse transfection was carried out in triplicates according to a published protocol and the following parameters: 5000-12000 cells per 96 well, 0.1-0.2 μl lipofectamine-2000 (Invitrogen, Carlsbad, Calif.) in 20 μl OptiMEM (Invitrogen), […] final concentration of miRNA in 100 μl (Ovcharenko et al., 2005). Electroporation of H226 cells was carried out using the BioRad GenePulserXcell™ instrument with the following settings: 5×10^6 cells with 5 μg miRNA in 200 μl OptiMEM, square wave pulse at 250 V for 5 ms. […]
The inventors determined sensitivity and specificity of hsa-miR-147 by administering hsa-miR-147 or negative control miRNA at increasing concentrations, ranging from 0 pM to 3 nM. Delivery of miRNA and cellular proliferation of A549 and H1299 cells was assessed as described above. […]

H522 cells = assay: Alamar Blue proliferation assay, H522
Excerpt: as §1, with “ms. Electroporated H226 cells were seeded at 7000 cells per 96-well in a total volume of 100 μl. All cells except for Calu-3 cells were harvested 72 hours post transfection or electroporation for assessment of cellular proliferation. Calu-3 cells were harvested 10 days post transfection.” for “ms.”

H838 cells = assay: Alamar Blue proliferation assay, H838
Excerpt: as §1, with “ms. Electroporated H226 cells were seeded at 7000 cells per 96-well in a total volume of 100 μl. All cells except for Calu-3 cells were harvested 72 hours post transfection or electroporation for assessment of cellular proliferation. Calu-3 cells were harvested 10 days post transfection.” for “ms.”

HCC827 cells = assay: Alamar Blue proliferation assay, HCC827
Excerpt: as §1, with “ms. Electroporated H226 cells were seeded at 7000 cells per 96-well in a total volume of 100 μl. All cells except for Calu-3 cells were harvested 72 hours post transfection or electroporation for assessment of cellular proliferation. Calu-3 cells were harvested 10 days post transfection.” for “ms.”

H226 cells = assay: Alamar Blue proliferation assay, H226 (electroporation)
Excerpt: as §1, with “ms. Electroporated H226 cells were seeded at 7000 cells per 96-well in a total volume of 100 μl. All cells except for Calu-3 cells were harvested 72 hours post transfection or electroporation for assessment of cellular proliferation. Calu-3 cells were harvested 10 days post transfection.” for “ms.”

H596 cells = assay: Alamar Blue proliferation assay, H596
Excerpt: as §1, with “ms. Electroporated H226 cells were seeded at 7000 cells per 96-well in a total volume of 100 μl. All cells except for Calu-3 cells were harvested 72 hours post transfection or electroporation for assessment of cellular proliferation. Calu-3 cells were harvested 10 days post transfection.” for “ms.”

H460 cells = assay: Alamar Blue proliferation assay, H460
Excerpt: as §1, with “ms. Electroporated H226 cells were seeded at 7000 cells per 96-well in a total volume of 100 μl. All cells except for Calu-3 cells were harvested 72 hours post transfection or electroporation for assessment of cellular proliferation. Calu-3 cells were harvested 10 days post transfection.” for “ms.”

A549-luc cells = assay: Alamar Blue proliferation assay, A549-luc
Excerpt: as §1, with “ms. Electroporated H226 cells were seeded at 7000 cells per 96-well in a total volume of 100 μl. All cells except for Calu-3 cells were harvested 72 hours post transfection or electroporation for assessment of cellular proliferation. Calu-3 cells were harvested 10 days post transfection.” for “ms.”

H460-luc cells = assay: Alamar Blue proliferation assay, H460-luc
Excerpt: as §1, with “ms. Electroporated H226 cells were seeded at 7000 cells per 96-well in a total volume of 100 μl. All cells except for Calu-3 cells were harvested 72 hours post transfection or electroporation for assessment of cellular proliferation. Calu-3 cells were harvested 10 days post transfection.” for “ms.”

H1650-luc cells = assay: Alamar Blue proliferation assay, H1650-luc
Excerpt: as §1, with “ms. Electroporated H226 cells were seeded at 7000 cells per 96-well in a total volume of 100 μl. All cells except for Calu-3 cells were harvested 72 hours post transfection or electroporation for assessment of cellular proliferation. Calu-3 cells were harvested 10 days post transfection.” for “ms.”

H441-luc cells = assay: Alamar Blue proliferation assay, H441-luc
Excerpt: as §1, with “ms. Electroporated H226 cells were seeded at 7000 cells per 96-well in a total volume of 100 μl. All cells except for Calu-3 cells were harvested 72 hours post transfection or electroporation for assessment of cellular proliferation. Calu-3 cells were harvested 10 days post transfection.” for “ms.”

[1] = etoposide 10 μM, normalized to negative control miRNA (100%)
[2] = etoposide 50 μM, normalized to negative control miRNA (100%)
[3] = 30 nM, normalized to negative control miRNA (100% proliferation)

Compound: COc1cc([C@@H]2c3cc4c(cc3[C@@H](O[C@@H]3O[C@@H]5CO[C@@H](C)O[C@H]5[C@H](O)[C@H]3O)[C@H]3COC(=O)[C@H]23)OCO4)cc(OC)c1O [Etoposide, etoposide]
- % proliferation (A549 cells; [1]): 49.13%
- % proliferation (A549 cells; [2]): 42.18%
- % proliferation (H522 cells; [1]): 82.13%
- % proliferation (H522 cells; [2]): 61.08%
- % proliferation (H838 cells; [1]): 89.71%
- % proliferation (H838 cells; [2]): 36.97%
- % proliferation (HCC827 cells; [1]): 98.95%
- % proliferation (HCC827 cells; [2]): 82.53%
- % proliferation (H226 cells; [1]): 28.17%
- % proliferation (H226 cells; [2]): 9.33%
- % proliferation (H596 cells; [1]): 88.75%
- % proliferation (H596 cells; [2]): 73.39%
- % proliferation (H460 cells; [1]): 32.13%
- % proliferation (H460 cells; [2]): 27.82%
- % proliferation (A549-luc cells; [1]): 8.56%
- % proliferation (A549-luc cells; [2]): 0.72%
- % proliferation (H460-luc cells; [1]): 15.04%
- % proliferation (H460-luc cells; [2]): 2.34%
- % proliferation (H1650-luc cells; [1]): 33.78%
- % proliferation (H1650-luc cells; [2]): 5.59%
- % proliferation (H441-luc cells; [1]): 41.22%
- % proliferation (H441-luc cells; [2]): 1.99%

Compound: hsa-miR-147: Synthetic pre-miR-147 (Ambion AM17100; Dharmacon in vivo); mature sequence GUGUGUGGAAAUGCUUCUGC, MIMAT0000251, SEQ ID NO:114 (synthetic pre-miR (Ambion/Dharmacon), chemistry not given here; listed as Homo sapiens)
- % proliferation (A549 cells; [3]): 67.78%
- % proliferation (H522 cells; [3]): 89.21%
- % proliferation (H838 cells; [3]): 71.44%
- % proliferation (HCC827 cells; [3]): 76.18%
- % proliferation (H226 cells; [3]): 72.82%
- % proliferation (H596 cells; [3]): 91.60%
- % proliferation (H460 cells; [3]): 72.11%
- % proliferation (A549-luc cells; [3]): 75.69%
- % proliferation (H460-luc cells; [3]): 39.54%
- % proliferation (H1650-luc cells; [3]): 59.27%
- % proliferation (H441-luc cells; [3]): 55.53%
